{"source": "paper PMC3388095", "about": "“Fluorophore Labeled Kinase Detects Ligands That Bind within the MAPK Insert of p38α Kinase” (PLoS ONE, 2012)", "key": {"[1]": {"tested_on": "p38α", "assay": "glycine-rich loop FLiK binding assay (library screen)", "conditions": "initial library screen"}, "[2]": {"target": "Aurora A (Homo sapiens, UniProt O14965)", "assay": "Kinase selectivity profile, 33P-ATP filter-binding assay", "format": "biochemical", "description": "(§1) Figure 5 Kinase selectivity profile of 1b. Compound 1b was profiled against a selected panel of 95 different kinases at a concentration of 10 µM employing a radioactive (^33P-ATP) filter-binding assay (National Centre for Protein Kinase Profiling, Dundee). The numbers represent the remaining kinase activity in %. […] TEXT PRINTED IN THE PICTURE: no label printed: Aurora B: 53; MNK2: 67; MINK1: 69; HER4: 71; MKK1: 75; PKBβ: 75; PHK: 76; PIM2: 76; PIM3: 77; CHK2: 78; PKD1: 79; TBK1: 79; PAK4: 80; Lck: 80; GSK3β: 80; IGF-1R: 81; p38δ MAPK: 81; PIM1: 82; SRPK1: 83; SmMLCK: 83; MAPKAP-K3: 84; EPH A2: 85; MELK: 85; CK2: 85; CK1: 86; CAMK1: 86; PLK1: 87; MST2: 87; IR-HIS: 87; BTK: 87; HIPK1: 87; p38α MAPK: 88; DYRK2: 88; JNK3: 88; PAK5: 88; IKKε: 89; p38β MAPK: 89; NUAK1: 90; PAK2: 90; MNK1: 91; ERK8: 91; GCK: 91; PRAK: 91; MLK1: 92; SGK1: 92; PAK6: 92; TTK: 92; BRSK2: 92; MARK4: 93; CHK1: 93; RIPK2: 94; CDK2-Cyclin A: 94; JNK1: 94; AMPK: 94; VEG-FR: 95; DYRK1A: 95; CAMKKβ: 95; PKCα: 96; S6K1: 96; MSK1: 96; PKCz: 96; YES1: 96; RSK1: 97; IRAK4: 97; DYRK3: 97; IKKβ: 97; ERK2: 98; MLK3: 98; RSK2: 98; LKB1: 98; MAPKAP-K2: 98; ERK1: 99; FGF-R1: 99; SYK: 99; MST4: 99; MARK3: 99; MARK2: 100; PDK1: 100; JNK2: 101; HIPK2: 101; BRSK1: 102; EF2K: 102; PRK2: 103; Aurora A: 104; IRR: 104; CSK: 104; PKA: 104; NEK6: 105; p38γ MAPK: 105; Src: 107; PKBα: 109; ROCK 2: 109; EPH-B3: 112; HIPK3: 115; NEK2α: 119 DOUBTS OF THE COPYIST ABOUT THIS PICTURE: The picture prints no compound label and no measure or unit for the numbers; only the colour scale 'Inhibition weak/strong' is printed. / PKCz: the last letter may be z or ζ / NEK2α: the last letter may be a or α / IKKε: the last letter may be ε or e"}, "[3]": {"target": "Aurora B (Homo sapiens, UniProt Q96GD4)", "sequence (Q96GD4 whole entry)": "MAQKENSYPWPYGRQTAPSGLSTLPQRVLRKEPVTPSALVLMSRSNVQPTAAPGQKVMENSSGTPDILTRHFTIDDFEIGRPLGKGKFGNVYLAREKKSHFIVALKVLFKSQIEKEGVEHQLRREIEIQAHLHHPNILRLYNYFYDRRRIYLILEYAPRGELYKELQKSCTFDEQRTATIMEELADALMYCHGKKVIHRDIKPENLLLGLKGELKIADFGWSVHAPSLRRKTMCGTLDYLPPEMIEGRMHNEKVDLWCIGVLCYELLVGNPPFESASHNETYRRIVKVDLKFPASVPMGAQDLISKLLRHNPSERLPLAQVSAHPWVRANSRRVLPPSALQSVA", "assay": "Kinase selectivity profile, 33P-ATP filter-binding assay", "format": "biochemical", "description": "as §1"}, "[4]": {"target": "CDK2-Cyclin A (Homo sapiens, UniProt P24941)", "assay": "Kinase selectivity profile, 33P-ATP filter-binding assay", "format": "biochemical", "description": "as §1"}, "[5]": {"target": "CSK (Homo sapiens, UniProt P41240)", "sequence (P41240 whole entry)": "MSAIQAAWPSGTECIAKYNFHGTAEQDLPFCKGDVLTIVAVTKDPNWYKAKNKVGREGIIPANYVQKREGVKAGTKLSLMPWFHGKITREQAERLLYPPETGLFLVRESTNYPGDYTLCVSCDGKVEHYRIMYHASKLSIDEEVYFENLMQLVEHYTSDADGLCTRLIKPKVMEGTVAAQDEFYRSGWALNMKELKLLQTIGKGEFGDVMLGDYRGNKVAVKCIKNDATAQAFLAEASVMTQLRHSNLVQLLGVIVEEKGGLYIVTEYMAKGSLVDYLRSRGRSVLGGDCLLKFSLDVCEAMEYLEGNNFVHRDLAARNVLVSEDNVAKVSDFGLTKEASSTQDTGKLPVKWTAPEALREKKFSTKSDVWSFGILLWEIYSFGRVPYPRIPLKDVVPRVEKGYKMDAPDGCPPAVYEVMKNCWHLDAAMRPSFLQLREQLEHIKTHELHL", "assay": "Kinase selectivity profile, 33P-ATP filter-binding assay", "format": "biochemical", "description": "as §1"}, "[6]": {"target": "DYRK2 (Homo sapiens, UniProt Q92630)", "assay": "Kinase selectivity profile, 33P-ATP filter-binding assay", "format": "biochemical", "description": "as §1"}, "[7]": {"target": "FGF-R1 (Homo sapiens, UniProt P11362)", "assay": "Kinase selectivity profile, 33P-ATP filter-binding assay", "format": "biochemical", "description": "as §1"}, "[8]": {"target": "GSK3β (Homo sapiens, UniProt P49841)", "assay": "Kinase selectivity profile, 33P-ATP filter-binding assay", "format": "biochemical", "description": "as §1"}, "[9]": {"target": "HER4 (Homo sapiens, UniProt Q15303)", "sequence (Q15303 26-1308)": "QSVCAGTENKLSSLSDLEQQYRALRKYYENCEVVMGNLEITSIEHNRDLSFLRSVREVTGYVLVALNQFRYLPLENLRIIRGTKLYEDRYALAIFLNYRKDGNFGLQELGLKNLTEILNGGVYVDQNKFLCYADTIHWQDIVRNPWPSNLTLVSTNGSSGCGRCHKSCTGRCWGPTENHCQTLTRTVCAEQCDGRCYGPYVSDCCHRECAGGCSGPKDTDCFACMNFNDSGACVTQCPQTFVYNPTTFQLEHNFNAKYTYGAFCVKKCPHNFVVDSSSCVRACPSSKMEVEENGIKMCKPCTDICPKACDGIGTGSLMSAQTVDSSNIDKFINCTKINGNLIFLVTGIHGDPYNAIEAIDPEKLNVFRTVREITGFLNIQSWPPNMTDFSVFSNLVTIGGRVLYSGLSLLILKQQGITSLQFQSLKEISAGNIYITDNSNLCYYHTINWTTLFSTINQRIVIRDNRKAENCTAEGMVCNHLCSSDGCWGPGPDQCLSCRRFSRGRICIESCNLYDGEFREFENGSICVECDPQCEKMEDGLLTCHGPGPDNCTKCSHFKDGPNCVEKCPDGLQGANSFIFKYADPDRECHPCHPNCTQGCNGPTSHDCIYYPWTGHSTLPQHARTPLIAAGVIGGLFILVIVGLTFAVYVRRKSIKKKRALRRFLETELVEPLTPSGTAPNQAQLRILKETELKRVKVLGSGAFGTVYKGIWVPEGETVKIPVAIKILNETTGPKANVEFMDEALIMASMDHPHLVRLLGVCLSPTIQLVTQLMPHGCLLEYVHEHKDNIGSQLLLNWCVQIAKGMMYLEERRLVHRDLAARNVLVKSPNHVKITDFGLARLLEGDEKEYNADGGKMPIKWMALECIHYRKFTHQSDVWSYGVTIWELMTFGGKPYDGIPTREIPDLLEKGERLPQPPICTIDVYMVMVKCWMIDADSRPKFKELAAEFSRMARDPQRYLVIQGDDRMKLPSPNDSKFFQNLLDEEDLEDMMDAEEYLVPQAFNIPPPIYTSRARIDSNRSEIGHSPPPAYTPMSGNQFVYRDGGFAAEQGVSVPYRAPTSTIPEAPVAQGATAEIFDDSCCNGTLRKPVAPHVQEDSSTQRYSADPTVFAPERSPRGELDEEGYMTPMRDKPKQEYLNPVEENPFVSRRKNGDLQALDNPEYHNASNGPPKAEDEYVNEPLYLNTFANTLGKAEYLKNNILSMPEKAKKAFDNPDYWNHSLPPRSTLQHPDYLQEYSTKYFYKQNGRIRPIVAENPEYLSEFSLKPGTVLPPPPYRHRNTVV", "assay": "Kinase selectivity profile, 33P-ATP filter-binding assay", "format": "biochemical", "description": "as §1"}, "[10]": {"target": "IRR (Homo sapiens, UniProt P14616)", "assay": "Kinase selectivity profile, 33P-ATP filter-binding assay", "format": "biochemical", "description": "as §1"}, "[11]": {"target": "JNK3 (Homo sapiens, UniProt P53779)", "sequence (P53779 whole entry)": "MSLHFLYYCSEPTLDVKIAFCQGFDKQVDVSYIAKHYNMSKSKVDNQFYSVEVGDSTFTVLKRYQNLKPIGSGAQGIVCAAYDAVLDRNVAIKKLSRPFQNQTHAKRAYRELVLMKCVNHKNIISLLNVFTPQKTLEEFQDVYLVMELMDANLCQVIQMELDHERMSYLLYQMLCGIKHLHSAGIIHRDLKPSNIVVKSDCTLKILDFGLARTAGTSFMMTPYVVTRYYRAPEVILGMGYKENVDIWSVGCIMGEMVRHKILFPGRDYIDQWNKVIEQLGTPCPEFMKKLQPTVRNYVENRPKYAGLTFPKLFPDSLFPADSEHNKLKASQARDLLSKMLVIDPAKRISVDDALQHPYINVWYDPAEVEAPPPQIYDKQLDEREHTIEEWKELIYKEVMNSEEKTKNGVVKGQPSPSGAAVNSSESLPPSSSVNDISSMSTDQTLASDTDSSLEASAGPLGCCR", "assay": "Kinase selectivity profile, 33P-ATP filter-binding assay", "format": "biochemical", "description": "as §1"}, "[12]": {"target": "MELK (Homo sapiens, UniProt Q14680)", "assay": "Kinase selectivity profile, 33P-ATP filter-binding assay", "format": "biochemical", "description": "as §1"}, "[13]": {"target": "MINK1 (Homo sapiens, UniProt Q8N4C8)", "sequence (Q8N4C8 whole entry)": "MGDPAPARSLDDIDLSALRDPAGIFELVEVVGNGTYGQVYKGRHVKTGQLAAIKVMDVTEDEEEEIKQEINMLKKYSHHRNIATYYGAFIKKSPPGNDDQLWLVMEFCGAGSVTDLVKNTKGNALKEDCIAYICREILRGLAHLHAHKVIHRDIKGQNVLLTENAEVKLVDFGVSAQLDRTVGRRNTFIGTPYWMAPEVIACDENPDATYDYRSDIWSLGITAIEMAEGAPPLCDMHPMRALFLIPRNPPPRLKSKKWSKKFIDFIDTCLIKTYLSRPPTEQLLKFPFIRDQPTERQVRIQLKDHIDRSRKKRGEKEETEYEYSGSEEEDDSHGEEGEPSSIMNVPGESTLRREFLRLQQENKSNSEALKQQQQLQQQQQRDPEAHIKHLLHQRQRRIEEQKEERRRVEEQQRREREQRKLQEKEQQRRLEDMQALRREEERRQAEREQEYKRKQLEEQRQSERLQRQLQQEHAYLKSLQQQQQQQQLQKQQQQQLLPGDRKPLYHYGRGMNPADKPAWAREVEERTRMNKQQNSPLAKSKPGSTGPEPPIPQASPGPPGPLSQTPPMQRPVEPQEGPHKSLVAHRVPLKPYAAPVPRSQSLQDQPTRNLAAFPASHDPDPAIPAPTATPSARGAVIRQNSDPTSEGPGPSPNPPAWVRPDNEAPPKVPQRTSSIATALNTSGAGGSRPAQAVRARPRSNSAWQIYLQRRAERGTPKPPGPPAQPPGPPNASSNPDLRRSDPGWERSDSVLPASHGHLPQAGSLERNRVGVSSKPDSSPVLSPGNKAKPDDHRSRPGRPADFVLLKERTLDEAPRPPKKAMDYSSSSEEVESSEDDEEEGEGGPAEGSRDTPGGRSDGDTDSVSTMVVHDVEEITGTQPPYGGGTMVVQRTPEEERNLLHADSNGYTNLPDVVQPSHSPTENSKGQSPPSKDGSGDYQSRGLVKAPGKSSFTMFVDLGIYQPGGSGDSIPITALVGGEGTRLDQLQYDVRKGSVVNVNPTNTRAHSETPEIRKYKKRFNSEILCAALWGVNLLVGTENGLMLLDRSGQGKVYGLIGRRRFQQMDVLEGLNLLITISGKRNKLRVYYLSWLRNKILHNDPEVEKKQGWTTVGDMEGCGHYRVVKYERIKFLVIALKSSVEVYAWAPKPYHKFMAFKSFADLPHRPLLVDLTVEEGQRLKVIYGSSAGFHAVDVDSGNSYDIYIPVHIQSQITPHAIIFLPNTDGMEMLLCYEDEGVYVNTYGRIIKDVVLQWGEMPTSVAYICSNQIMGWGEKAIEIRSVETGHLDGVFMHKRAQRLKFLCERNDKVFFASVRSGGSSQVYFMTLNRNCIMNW", "assay": "Kinase selectivity profile, 33P-ATP filter-binding assay", "format": "biochemical", "description": "as §1"}, "[14]": {"target": "MKK1 (Homo sapiens, UniProt Q02750)", "assay": "Kinase selectivity profile, 33P-ATP filter-binding assay", "format": "biochemical", "description": "as §1"}, "[15]": {"target": "MST4 (Homo sapiens, UniProt Q9P289)", "sequence (Q9P289 whole entry)": "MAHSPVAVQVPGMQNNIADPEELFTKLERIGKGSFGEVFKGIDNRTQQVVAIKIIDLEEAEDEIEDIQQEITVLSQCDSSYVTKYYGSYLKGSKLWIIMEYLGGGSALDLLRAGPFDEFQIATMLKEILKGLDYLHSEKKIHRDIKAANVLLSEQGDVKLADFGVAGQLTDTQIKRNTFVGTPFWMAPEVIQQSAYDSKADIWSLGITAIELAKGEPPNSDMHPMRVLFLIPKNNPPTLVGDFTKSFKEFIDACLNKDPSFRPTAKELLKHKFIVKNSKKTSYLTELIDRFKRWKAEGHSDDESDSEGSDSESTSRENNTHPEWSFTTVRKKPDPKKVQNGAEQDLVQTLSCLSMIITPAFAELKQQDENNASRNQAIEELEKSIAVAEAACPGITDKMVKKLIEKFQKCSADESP", "assay": "Kinase selectivity profile, 33P-ATP filter-binding assay", "format": "biochemical", "description": "as §1"}, "[16]": {"target": "PAK2 (Homo sapiens, UniProt Q13177)", "assay": "Kinase selectivity profile, 33P-ATP filter-binding assay", "format": "biochemical", "description": "as §1"}, "[17]": {"target": "PAK6 (Homo sapiens, UniProt Q9NQU5)", "sequence (Q9NQU5 whole entry)": "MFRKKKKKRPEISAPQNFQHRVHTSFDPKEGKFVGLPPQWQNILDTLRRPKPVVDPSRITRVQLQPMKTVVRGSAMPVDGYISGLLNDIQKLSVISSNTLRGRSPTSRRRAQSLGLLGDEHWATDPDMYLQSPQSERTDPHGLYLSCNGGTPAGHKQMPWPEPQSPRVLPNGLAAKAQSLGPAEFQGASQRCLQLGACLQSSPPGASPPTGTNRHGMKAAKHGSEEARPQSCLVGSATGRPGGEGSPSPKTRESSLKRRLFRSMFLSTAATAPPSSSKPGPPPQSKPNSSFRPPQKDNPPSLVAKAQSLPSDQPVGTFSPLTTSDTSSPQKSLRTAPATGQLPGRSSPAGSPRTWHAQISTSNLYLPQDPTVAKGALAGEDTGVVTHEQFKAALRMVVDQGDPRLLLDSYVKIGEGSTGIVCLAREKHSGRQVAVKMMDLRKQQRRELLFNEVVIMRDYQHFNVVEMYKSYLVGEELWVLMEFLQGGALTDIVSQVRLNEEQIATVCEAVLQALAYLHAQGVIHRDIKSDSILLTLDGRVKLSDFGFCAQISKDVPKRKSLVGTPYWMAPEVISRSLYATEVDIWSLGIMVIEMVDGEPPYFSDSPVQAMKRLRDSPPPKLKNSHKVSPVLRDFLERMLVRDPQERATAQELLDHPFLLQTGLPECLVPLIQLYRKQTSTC", "assay": "Kinase selectivity profile, 33P-ATP filter-binding assay", "format": "biochemical", "description": "as §1"}, "[18]": {"target": "PDK1 (Homo sapiens, UniProt O15530)", "assay": "Kinase selectivity profile, 33P-ATP filter-binding assay", "format": "biochemical", "description": "as §1"}, "[19]": {"target": "PKBα (Homo sapiens, UniProt P31749)", "assay": "Kinase selectivity profile, 33P-ATP filter-binding assay", "format": "biochemical", "description": "as §1"}, "[20]": {"target": "PKBβ (Homo sapiens, UniProt P31751)", "assay": "Kinase selectivity profile, 33P-ATP filter-binding assay", "format": "biochemical", "description": "as §1"}, "[21]": {"target": "PKCz (Homo sapiens, UniProt Q05513)", "assay": "Kinase selectivity profile, 33P-ATP filter-binding assay", "format": "biochemical", "description": "as §1"}, "[22]": {"target": "SRPK1 (Homo sapiens, UniProt Q96SB4)", "assay": "Kinase selectivity profile, 33P-ATP filter-binding assay", "format": "biochemical", "description": "as §1"}, "[23]": {"target": "SYK (Homo sapiens, UniProt P43405)", "assay": "Kinase selectivity profile, 33P-ATP filter-binding assay", "format": "biochemical", "description": "as §1"}, "[24]": {"target": "Src (Homo sapiens, UniProt P12931)", "assay": "Kinase selectivity profile, 33P-ATP filter-binding assay", "format": "biochemical", "description": "as §1"}, "[25]": {"target": "TTK (Homo sapiens, UniProt P33981)", "assay": "Kinase selectivity profile, 33P-ATP filter-binding assay", "format": "biochemical", "description": "as §1"}, "[26]": {"target": "VEG-FR (Homo sapiens, UniProt P17948)", "assay": "Kinase selectivity profile, 33P-ATP filter-binding assay", "format": "biochemical", "description": "as §1"}, "[27]": {"target": "p38β MAPK (Homo sapiens, UniProt Q15759)", "assay": "Kinase selectivity profile, 33P-ATP filter-binding assay", "format": "biochemical", "description": "as §1"}}}
{"smiles": "Nc1ccc2c(NC3CC3)nc(-c3ccccc3)nc2c1", "note": "[1b, N^4-Cyclopropyl-2-phenyl-4,7-quinazolinediamine]", "values": [{"measurement": "binding detected by glycine-rich loop FLiK assay", "setting": "[1]", "result": "weakly detected"}, {"measurement": "remaining activity at 10 µM", "setting": "[2]", "result": 104, "unit": "%"}, {"measurement": "remaining activity at 10 µM", "setting": "[3]", "result": 53, "unit": "%"}, {"measurement": "remaining activity at 10 µM", "setting": "[4]", "result": 94, "unit": "%"}, {"measurement": "remaining activity at 10 µM", "setting": "[5]", "result": 104, "unit": "%"}, {"measurement": "remaining activity at 10 µM", "setting": "[6]", "result": 88, "unit": "%"}, {"measurement": "remaining activity at 10 µM", "setting": "[7]", "result": 99, "unit": "%"}, {"measurement": "remaining activity at 10 µM", "setting": "[8]", "result": 80, "unit": "%"}, {"measurement": "remaining activity at 10 µM", "setting": "[9]", "result": 71, "unit": "%"}, {"measurement": "remaining activity at 10 µM", "setting": "[10]", "result": 104, "unit": "%"}, {"measurement": "remaining activity at 10 µM", "setting": "[11]", "result": 88, "unit": "%"}, {"measurement": "remaining activity at 10 µM", "setting": "[12]", "result": 85, "unit": "%"}, {"measurement": "remaining activity at 10 µM", "setting": "[13]", "result": 69, "unit": "%"}, {"measurement": "remaining activity at 10 µM", "setting": "[14]", "result": 75, "unit": "%"}, {"measurement": "remaining activity at 10 µM", "setting": "[15]", "result": 99, "unit": "%"}, {"measurement": "remaining activity at 10 µM", "setting": "[16]", "result": 90, "unit": "%"}, {"measurement": "remaining activity at 10 µM", "setting": "[17]", "result": 92, "unit": "%"}, {"measurement": "remaining activity at 10 µM", "setting": "[18]", "result": 100, "unit": "%"}, {"measurement": "remaining activity at 10 µM", "setting": "[19]", "result": 109, "unit": "%"}, {"measurement": "remaining activity at 10 µM", "setting": "[20]", "result": 75, "unit": "%"}, {"measurement": "remaining activity at 10 µM", "setting": "[21]", "result": 96, "unit": "%"}, {"measurement": "remaining activity at 10 µM", "setting": "[22]", "result": 83, "unit": "%"}, {"measurement": "remaining activity at 10 µM", "setting": "[23]", "result": 99, "unit": "%"}, {"measurement": "remaining activity at 10 µM", "setting": "[24]", "result": 107, "unit": "%"}, {"measurement": "remaining activity at 10 µM", "setting": "[25]", "result": 92, "unit": "%"}, {"measurement": "remaining activity at 10 µM", "setting": "[26]", "result": 95, "unit": "%"}, {"measurement": "remaining activity at 10 µM", "setting": "[27]", "result": 89, "unit": "%"}]}
